Results reported in ChEMBL document CHEMBL3091325, “New aminopyrimidine derivatives as inhibitors of the TAM family” (Eur J Med Chem, 2013).

How the values were obtained:
[1] = biological target: Tyrosine-protein kinase receptor UFO (Homo sapiens) (UniProt P30530); assay: Inhibition of Axl (unknown origin) at 1 uM relative to control
[2] = biological target: Fibroblast growth factor receptor 3 (Homo sapiens) (UniProt P22607); assay: Inhibition of FGFR3 (unknown origin) at 75 uM relative to control
Fibroblast growth factor receptor 3 (Homo sapiens), sequence (P22607 23-806 limits assumed): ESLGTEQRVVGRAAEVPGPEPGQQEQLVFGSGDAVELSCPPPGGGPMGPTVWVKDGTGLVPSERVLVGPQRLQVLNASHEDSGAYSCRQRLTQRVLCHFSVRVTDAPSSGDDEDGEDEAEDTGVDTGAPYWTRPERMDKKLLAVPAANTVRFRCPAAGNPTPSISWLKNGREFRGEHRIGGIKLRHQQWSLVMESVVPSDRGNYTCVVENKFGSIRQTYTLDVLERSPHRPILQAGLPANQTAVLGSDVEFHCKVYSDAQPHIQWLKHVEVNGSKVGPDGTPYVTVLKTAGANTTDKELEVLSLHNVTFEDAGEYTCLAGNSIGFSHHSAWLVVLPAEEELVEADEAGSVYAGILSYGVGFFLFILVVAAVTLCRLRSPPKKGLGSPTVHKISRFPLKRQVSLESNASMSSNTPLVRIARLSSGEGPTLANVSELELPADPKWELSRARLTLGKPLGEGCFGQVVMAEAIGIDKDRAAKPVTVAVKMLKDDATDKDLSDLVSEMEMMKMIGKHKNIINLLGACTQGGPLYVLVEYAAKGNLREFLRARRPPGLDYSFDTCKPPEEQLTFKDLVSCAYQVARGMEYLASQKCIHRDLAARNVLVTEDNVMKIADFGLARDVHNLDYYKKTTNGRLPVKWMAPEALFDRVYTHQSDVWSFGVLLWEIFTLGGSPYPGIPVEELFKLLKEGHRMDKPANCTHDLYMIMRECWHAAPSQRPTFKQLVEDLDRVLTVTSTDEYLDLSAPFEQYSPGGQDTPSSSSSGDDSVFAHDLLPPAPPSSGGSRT

[3] = biological target: T1, Tyrosine-protein kinase Mer (Homo sapiens) (UniProt Q12866); assay: Inhibition of Mer (unknown origin) at 75 uM relative to control
T1 sequence (whole entry): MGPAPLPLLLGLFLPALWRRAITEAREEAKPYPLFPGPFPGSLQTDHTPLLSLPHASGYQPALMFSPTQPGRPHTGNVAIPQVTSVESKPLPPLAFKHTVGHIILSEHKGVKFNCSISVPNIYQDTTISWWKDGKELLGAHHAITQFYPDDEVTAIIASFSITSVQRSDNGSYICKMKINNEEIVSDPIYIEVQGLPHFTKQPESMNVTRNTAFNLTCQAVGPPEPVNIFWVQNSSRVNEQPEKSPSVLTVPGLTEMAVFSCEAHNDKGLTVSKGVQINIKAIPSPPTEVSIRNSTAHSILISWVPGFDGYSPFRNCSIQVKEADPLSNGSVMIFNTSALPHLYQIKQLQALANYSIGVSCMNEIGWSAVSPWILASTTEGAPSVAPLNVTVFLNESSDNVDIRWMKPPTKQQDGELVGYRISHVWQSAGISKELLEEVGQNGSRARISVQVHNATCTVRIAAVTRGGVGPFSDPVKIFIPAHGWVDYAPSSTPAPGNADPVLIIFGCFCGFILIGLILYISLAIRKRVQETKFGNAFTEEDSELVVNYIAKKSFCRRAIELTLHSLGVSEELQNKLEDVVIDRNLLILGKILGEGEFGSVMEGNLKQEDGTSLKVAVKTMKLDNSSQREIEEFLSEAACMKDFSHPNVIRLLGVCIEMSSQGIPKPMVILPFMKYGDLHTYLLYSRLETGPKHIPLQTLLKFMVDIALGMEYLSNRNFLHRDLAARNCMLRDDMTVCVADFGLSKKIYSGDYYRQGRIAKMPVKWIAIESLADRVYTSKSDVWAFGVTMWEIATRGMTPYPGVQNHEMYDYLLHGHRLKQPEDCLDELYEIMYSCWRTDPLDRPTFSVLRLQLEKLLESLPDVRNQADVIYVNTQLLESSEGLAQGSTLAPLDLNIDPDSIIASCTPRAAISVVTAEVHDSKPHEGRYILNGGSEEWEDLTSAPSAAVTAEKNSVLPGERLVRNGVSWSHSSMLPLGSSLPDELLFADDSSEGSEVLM

[4] = biological target: Fibroblast growth factor receptor 3 (Homo sapiens) (UniProt P22607); assay: Inhibition of FGFR3 (unknown origin) at 1 uM relative to control
[5] = biological target: Tyrosine-protein kinase ABL1 (Homo sapiens) (UniProt P00519); assay: Inhibition of phosphorylated form of Abl1 (unknown origin) at 0.5 uM relative to control
Tyrosine-protein kinase ABL1 (Homo sapiens), sequence (P00519 whole entry, the tested form may be a part): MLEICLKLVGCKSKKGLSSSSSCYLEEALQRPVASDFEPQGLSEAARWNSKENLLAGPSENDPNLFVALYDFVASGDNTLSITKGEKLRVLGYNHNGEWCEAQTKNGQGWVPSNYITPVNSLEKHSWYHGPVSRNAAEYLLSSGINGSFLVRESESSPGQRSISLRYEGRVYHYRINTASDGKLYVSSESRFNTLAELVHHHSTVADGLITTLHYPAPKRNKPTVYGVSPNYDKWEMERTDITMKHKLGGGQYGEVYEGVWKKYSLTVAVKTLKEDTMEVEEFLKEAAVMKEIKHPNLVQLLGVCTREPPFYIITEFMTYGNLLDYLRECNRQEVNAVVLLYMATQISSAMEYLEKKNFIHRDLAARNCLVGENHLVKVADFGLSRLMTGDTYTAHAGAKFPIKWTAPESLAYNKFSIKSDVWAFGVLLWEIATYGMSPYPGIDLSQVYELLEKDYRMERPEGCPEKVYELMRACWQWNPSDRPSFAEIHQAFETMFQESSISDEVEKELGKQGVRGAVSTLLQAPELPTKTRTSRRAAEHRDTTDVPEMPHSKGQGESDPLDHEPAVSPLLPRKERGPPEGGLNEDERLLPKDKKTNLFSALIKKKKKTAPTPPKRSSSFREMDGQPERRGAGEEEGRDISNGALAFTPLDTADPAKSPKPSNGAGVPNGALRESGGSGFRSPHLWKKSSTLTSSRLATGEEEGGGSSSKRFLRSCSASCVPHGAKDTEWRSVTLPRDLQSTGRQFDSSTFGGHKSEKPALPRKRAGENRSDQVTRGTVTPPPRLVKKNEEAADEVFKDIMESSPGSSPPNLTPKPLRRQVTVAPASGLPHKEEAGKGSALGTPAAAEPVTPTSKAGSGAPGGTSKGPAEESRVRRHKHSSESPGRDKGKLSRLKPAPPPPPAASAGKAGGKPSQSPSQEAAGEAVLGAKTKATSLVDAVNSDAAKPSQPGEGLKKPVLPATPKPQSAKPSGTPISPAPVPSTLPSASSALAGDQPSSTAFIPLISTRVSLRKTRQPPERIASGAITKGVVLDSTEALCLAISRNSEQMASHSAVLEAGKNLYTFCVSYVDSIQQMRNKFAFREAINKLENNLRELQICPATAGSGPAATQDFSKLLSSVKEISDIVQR

[6] = biological target: Fibroblast growth factor receptor 3 (Homo sapiens) (UniProt P22607); assay: Inhibition of FGFR3 (unknown origin) at 0.5 uM relative to control
[7] = biological target: T2, Tyrosine-protein kinase receptor TYRO3 (Homo sapiens) (UniProt Q06418); assay: Inhibition of recombinant human Tyro3 kinase domain using poly (Glu, Ala, Tyr) as substrate at 0.5 uM after 1.5 hrs by ELISA relative to control
T2 sequence (whole entry): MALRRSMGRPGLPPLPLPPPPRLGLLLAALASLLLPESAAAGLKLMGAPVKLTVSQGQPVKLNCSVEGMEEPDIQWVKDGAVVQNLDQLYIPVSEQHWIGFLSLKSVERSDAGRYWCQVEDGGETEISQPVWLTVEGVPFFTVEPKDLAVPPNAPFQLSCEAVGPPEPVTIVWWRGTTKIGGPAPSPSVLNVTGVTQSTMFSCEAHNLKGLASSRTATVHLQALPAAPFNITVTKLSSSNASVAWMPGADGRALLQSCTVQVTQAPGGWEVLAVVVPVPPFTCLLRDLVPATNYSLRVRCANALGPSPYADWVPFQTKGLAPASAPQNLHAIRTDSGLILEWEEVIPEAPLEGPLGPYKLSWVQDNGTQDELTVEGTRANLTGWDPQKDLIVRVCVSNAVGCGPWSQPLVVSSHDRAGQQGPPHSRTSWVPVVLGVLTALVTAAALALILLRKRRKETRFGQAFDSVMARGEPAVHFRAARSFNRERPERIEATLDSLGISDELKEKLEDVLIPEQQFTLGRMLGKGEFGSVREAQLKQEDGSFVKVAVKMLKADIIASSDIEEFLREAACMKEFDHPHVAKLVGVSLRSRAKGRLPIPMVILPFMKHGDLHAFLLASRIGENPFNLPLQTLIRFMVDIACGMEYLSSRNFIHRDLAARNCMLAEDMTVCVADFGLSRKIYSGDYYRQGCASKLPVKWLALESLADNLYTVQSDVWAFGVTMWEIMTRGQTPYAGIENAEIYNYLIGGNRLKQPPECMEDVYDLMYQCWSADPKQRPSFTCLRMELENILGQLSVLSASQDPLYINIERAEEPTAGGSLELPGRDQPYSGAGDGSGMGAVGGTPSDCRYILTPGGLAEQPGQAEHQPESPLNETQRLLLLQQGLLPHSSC

[8] = biological target: T1, Tyrosine-protein kinase Mer (Homo sapiens); assay: Inhibition of Mer (unknown origin) at 1 uM relative to control
[9] = biological target: Hepatocyte growth factor receptor (Homo sapiens) (UniProt P08581); assay: Inhibition of Met (unknown origin) at 75 uM relative to control
Hepatocyte growth factor receptor (Homo sapiens), sequence (P08581 whole entry, the tested form may be a part): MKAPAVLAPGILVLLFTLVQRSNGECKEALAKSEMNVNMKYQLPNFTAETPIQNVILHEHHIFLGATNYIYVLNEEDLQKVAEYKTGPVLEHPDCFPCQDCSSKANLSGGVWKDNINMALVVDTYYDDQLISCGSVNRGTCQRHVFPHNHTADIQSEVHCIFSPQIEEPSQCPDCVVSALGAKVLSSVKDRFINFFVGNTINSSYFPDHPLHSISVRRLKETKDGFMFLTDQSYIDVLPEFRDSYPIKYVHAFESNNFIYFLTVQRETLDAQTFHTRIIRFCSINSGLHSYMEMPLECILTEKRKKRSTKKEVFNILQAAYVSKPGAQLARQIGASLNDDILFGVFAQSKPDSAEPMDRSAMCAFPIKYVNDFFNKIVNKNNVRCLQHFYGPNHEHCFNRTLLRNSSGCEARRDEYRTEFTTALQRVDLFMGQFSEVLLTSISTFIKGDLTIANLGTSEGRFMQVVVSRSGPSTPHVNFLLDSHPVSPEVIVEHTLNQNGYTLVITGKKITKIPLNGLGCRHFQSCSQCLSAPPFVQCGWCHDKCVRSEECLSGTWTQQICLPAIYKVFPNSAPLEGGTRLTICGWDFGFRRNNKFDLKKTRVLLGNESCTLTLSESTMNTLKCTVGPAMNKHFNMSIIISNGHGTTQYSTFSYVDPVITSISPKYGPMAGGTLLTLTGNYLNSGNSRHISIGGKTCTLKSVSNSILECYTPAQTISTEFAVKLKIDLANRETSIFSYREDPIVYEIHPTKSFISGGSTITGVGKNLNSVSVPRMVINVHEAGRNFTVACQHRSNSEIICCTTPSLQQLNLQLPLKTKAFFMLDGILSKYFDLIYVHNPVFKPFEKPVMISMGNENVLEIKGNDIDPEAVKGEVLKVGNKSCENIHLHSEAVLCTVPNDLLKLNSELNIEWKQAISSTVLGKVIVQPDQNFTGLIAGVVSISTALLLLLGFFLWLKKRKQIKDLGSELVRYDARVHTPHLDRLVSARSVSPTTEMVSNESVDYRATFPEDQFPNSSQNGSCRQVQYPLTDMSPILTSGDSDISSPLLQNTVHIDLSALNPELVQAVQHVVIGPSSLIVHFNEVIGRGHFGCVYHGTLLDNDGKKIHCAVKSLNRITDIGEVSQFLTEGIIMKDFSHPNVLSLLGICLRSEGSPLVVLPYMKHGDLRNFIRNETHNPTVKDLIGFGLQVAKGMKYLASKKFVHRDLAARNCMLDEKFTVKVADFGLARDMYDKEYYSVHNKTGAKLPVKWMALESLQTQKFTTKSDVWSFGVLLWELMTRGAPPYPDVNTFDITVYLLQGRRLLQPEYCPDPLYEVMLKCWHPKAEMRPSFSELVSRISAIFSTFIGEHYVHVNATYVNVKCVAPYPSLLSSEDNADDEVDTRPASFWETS

[10] = biological target: T1, Tyrosine-protein kinase Mer (Homo sapiens); assay: Inhibition of Mer (unknown origin) at 0.5 uM relative to control
[11] = biological target: Hepatocyte growth factor receptor (Homo sapiens) (UniProt P08581); assay: Inhibition of Met (unknown origin) at 1 uM relative to control
[12] = biological target: Tyrosine-protein kinase ABL1 (Homo sapiens) (UniProt P00519); assay: Inhibition of phosphorylated form of Abl1 (unknown origin) at 1 uM relative to control
[13] = biological target: Tyrosine-protein kinase receptor UFO (Homo sapiens) (UniProt P30530); assay: Inhibition of Axl (unknown origin) at 0.5 uM relative to control
[14] = biological target: Tyrosine-protein kinase ABL1 (Homo sapiens) (UniProt P00519); assay: Inhibition of non-phosphorylated form of Abl1 (unknown origin) at 0.5 uM relative to control
[15] = biological target: T2, Tyrosine-protein kinase receptor TYRO3 (Homo sapiens); assay: Inhibition of recombinant human Tyro3 kinase domain using poly (Glu, Ala, Tyr) as substrate at 1 uM after 1.5 hrs by ELISA relative to control
[16] = biological target: Tyrosine-protein kinase receptor UFO (Homo sapiens) (UniProt P30530); assay: Inhibition of Axl (unknown origin) at 75 uM relative to control
[17] = biological target: Tyrosine-protein kinase ABL1 (Homo sapiens) (UniProt P00519); assay: Inhibition of phosphorylated form of Abl1 (unknown origin) at 75 uM relative to control
[18] = biological target: Tyrosine-protein kinase ABL1 (Homo sapiens) (UniProt P00519); assay: Inhibition of non-phosphorylated form of Abl1 (unknown origin) at 1 uM relative to control
[19] = biological target: Tyrosine-protein kinase ABL1 (Homo sapiens) (UniProt P00519); assay: Inhibition of non-phosphorylated form of Abl1 (unknown origin) at 75 uM relative to control
[20] = biological target: Hepatocyte growth factor receptor (Homo sapiens) (UniProt P08581); assay: Inhibition of Met (unknown origin) at 0.5 uM relative to control
[21] = biological target: T2, Tyrosine-protein kinase receptor TYRO3 (Homo sapiens); assay: Inhibition of recombinant human Tyro3 kinase domain using poly (Glu, Ala, Tyr) as substrate at 75 uM after 1.5 hrs by ELISA relative to control

Tyrosine-protein kinase receptor UFO (Homo sapiens), sequence (P30530 whole entry): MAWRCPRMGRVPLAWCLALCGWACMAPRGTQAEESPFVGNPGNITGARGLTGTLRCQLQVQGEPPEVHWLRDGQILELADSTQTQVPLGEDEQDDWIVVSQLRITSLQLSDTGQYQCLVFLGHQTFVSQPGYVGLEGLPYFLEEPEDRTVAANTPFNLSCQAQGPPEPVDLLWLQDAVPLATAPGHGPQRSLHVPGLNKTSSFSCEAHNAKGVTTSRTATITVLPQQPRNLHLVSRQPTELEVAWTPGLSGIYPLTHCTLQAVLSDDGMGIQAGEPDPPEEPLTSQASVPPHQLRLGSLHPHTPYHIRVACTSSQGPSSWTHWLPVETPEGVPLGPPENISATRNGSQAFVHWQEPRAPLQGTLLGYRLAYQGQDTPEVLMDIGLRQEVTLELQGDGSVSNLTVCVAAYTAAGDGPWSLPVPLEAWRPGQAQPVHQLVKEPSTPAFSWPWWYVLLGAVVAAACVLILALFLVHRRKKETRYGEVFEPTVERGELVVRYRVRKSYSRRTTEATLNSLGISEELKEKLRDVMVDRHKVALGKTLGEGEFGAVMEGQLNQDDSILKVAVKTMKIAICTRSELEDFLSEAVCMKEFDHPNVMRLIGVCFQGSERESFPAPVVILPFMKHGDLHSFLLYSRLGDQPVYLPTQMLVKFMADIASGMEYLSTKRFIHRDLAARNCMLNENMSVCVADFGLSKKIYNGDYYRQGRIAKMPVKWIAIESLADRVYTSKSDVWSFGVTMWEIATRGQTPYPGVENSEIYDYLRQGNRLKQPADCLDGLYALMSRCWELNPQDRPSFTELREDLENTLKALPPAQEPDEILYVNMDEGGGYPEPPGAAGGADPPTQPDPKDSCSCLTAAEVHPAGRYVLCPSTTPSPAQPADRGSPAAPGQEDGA

| inhibition [1] | inhibition [2] | inhibition [4] | inhibition [5] | inhibition [6] | inhibition [7] | inhibition [8] | inhibition [9] | inhibition [10] | inhibition [11] | inhibition [12] | inhibition [13] | inhibition [14] | inhibition [15] | inhibition [16] | inhibition [17] | inhibition [18] | inhibition [19] | inhibition [20] | inhibition [21] | Structure (SMILES) | other results |
| --- | --- | --- | --- | --- | --- | --- | --- | --- | --- | --- | --- | --- | --- | --- | --- | --- | --- | --- | --- | --- | --- |
| 93% | 9% | 0% | 8% | 0% | 27% | 71% | 99% | 50% | 97% | 4% | 74% | 25% | 63% | 100% | 21% | 37% | 85% | 91% | 100% | Nc1cc(Oc2ccc(NC(=O)c3cccn(-c4ccc(F)cc4F)c3=O)cc2F)ncn1 | inhibition [3]: 87% |
| 100% | 16% | 0% | 0% | 0% | 73% | 93% | 95% | 77% | 98% | 0% | 98% | 17% | 94% | 98% | 20% | 32% | 66% | 93% | 100% | O=C(Nc1ccc(Oc2ncnc3[nH]cnc23)c(F)c1)c1cccn(-c2ccc(F)cc2)c1=O |  |
| 100% | 16% | 0% | 0% | 0% | 77% | 93% | 98% | 89% | 98% | 0% | 97% | 23% | 94% | 100% | 39% | 41% | 94% | 98% | 100% | Nc1cc(Oc2ccc(NC(=O)c3cccn(-c4ccc(F)cc4)c3=O)cc2F)ncn1 | inhibition [3]: 83% |
| 99% | 0% | 0% | 1% | 0% | 50% | 93% | 99% | 90% | 99% | 0% | 95% | 12% | 63% | 100% | 13% | 12% | 71% | 98% | 75% | O=C(Nc1ccc(Oc2cc(NCCN3CCOCC3)ncn2)c(F)c1)c1cccn(-c2ccc(F)cc2)c1=O | inhibition [3]: 49% |
| 98% | 6% | 0% | 0% | 0% | 48% | 65% | 99% | 53% | 100% | 0% | 93% | 10% | 65% | 100% | 47% | 27% | 98% | 99% | 100% | Cc1cc(F)ccc1-n1cccc(C(=O)Nc2ccc(Oc3cc(N)ncn3)c(F)c2)c1=O | inhibition [3]: 99% |
| 95% | 3% | 0% | 0% | 0% | 41% | 82% | 97% | 73% | 98% | 0% | 85% | 14% | 75% | 100% | 26% | 31% | 94% | 95% | 81% | Nc1cc(Oc2ccc(NC(=O)c3cccn(-c4ccc(F)cc4)c3=O)cc2)ncn1 | inhibition [3]: 100% |
| 100% | 12% | 0% | 0% | 0% | 61% | 95% | 99% | 94% | 100% | 0% | 96% | 27% | 75% | 100% | 30% | 50% | 32% | 99% |  | Nc1nccc(Oc2ccc(NC(=O)c3cccn(-c4ccc(F)cc4)c3=O)cc2F)n1 |  |
| 99% | 0% | 0% |  | 0% | 96% | 98% |  | 98% | 95% | 35% | 99% |  | 99% | 99% |  | 98% | 100% |  | 92% | CCOc1ccn(-c2ccc(F)cc2)c(=O)c1C(=O)Nc1ccc(Oc2ccnc(N)c2Cl)c(F)c1 | inhibition [3]: 95% |
